In ChEMBL document CHEMBL2331386, “Design, synthesis and SAR of piperidyl-oxadiazoles as 11β-hydroxysteroid dehydrogenase 1 inhibitors” (Eur J Med Chem, 2013):
pIC50: −log10 of the molar value.

What was measured:
CYP3A4 = CYP3A4 (Homo sapiens, UniProt P08684); assay: Inhibition of CYP3A4 in human microsomes using midazolam as substrate at 10 uM after 5 mins; type: ADME, Microsome; details: probe midazolam
[1] = target: 11-beta-hydroxysteroid dehydrogenase 1 (Homo sapiens, UniProt P28845); assay: Inhibition of human 11-beta HSD1 transfected in HEK293 cell microsomes assessed as decrease in [3H]cortisol generation using [3H]cortisone as substrate measured after 60 mins by scintillation proximity assay; set-up: species or system Microsome
Sequence of 11-beta-hydroxysteroid dehydrogenase 1 (P28845 whole entry): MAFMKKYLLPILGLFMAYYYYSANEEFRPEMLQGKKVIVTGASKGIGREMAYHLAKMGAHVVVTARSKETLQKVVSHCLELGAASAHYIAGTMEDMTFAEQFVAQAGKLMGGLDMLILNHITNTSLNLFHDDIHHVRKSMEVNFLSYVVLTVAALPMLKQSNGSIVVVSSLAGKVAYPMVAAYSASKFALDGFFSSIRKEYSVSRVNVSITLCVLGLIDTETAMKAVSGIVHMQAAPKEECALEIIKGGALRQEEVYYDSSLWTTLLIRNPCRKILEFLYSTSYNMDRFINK

[2] = (§1) AUC (0 to t) in rat at 6 mg/kg, po; type: ADME, organism-based, Plasma; set-up: dose 6 mg/kg, route oral; details: plasma
[3] = Intrinsic clearance in human liver microsomes at 1 uM preincubated for 5 mins measured per mg protein by LC/MS/MS analysis; type: ADME, Microsome; details: read-out: CLH
[4] = Half life in rat at 6 mg/kg, po; type: ADME, organism-based; set-up: dose 6 mg/kg, route oral; details: in vivo
[5] = (§2) Clearance in rat at 3 mg/kg, iv; type: ADME, organism-based; set-up: dose 3 mg/kg, route intravenous; details: in vivo
[6] = (§3) Oral bioavailability in rat at 6 mg/kg; type: ADME, organism-based; details: in vivo
CYP1A2 = target: T1, CYP1A2 (Homo sapiens, UniProt P05177); assay: Inhibition of CYP1A2 in human microsomes using phenacetin as substrate at 10 uM after 5 mins; type: ADME, Microsome; details: probe phenacetin
T1 sequence (P05177 whole entry): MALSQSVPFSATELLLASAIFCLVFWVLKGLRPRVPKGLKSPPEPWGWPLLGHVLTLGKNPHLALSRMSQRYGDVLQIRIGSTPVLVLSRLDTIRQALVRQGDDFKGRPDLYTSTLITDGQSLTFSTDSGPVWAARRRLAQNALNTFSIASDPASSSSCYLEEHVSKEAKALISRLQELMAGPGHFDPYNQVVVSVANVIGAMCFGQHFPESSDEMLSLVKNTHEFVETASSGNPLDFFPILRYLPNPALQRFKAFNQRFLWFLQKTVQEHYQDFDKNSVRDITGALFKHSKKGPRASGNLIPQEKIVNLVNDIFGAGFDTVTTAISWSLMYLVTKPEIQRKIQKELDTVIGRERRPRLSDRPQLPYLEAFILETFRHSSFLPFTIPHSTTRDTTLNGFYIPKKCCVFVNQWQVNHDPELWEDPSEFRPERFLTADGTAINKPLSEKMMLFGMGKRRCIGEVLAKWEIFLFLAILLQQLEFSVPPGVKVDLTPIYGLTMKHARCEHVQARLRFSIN

CYP2D6 = CYP2D6 (Homo sapiens, UniProt P10635); assay: Inhibition of CYP2D6 in human microsomes using dextrpmethorphan as substrate at 10 uM after 5 mins; type: ADME, Microsome; details: probe dextromethorphan (printed: dextrpmethorphan)
Sequence of CYP2D6 (P10635 whole entry): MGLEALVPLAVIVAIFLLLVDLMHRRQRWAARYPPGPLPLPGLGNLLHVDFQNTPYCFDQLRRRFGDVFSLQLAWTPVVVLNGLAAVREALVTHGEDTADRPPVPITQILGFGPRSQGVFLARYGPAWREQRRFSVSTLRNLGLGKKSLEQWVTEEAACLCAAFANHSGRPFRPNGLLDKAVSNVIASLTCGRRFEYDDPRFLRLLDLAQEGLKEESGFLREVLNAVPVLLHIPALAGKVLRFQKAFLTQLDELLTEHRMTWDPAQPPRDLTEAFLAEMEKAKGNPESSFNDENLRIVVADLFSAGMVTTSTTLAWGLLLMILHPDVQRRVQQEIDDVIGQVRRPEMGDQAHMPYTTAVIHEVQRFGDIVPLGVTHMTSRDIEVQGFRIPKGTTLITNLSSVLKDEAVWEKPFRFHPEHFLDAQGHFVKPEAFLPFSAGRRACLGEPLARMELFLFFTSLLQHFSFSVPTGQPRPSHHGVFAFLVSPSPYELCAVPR

Rattus norvegicus [7] = assay: as §1; type: ADME, organism-based, Plasma; set-up: dose 6 mg/kg, route oral; details: in vivo
Rattus norvegicus [8] = assay: as §2; type: ADME, organism-based; set-up: dose 3 mg/kg, route intravenous; details: in vivo
Rattus norvegicus [9] = assay: as §3; type: ADME, organism-based; details: in vivo

Sequence of CYP3A4 (P08684 whole entry): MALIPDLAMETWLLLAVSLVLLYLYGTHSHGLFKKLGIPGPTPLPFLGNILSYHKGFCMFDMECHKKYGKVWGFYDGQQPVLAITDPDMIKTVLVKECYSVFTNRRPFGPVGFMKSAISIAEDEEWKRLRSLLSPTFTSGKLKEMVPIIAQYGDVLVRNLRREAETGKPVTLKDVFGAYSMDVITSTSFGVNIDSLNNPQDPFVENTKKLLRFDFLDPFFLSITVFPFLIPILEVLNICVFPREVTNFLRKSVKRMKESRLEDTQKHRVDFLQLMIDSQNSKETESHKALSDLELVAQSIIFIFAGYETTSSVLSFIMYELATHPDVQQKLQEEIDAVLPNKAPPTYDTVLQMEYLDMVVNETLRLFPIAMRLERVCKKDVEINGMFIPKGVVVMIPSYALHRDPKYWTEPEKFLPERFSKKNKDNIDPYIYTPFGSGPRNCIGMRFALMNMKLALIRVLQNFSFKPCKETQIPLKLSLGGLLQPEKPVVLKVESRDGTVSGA

Structure (SMILES) | pIC50 [1] | other results
Cc1c(Cl)cccc1S(=O)(=O)N1CCC[C@H](C(=O)NC2CCCCC2)C1 | 9.10 | inhibition at 5 min, 10 µM (CYP3A4): 73%; AUC(0-t) [2]: 0.188 µM·h; microsomal CLint at 1 µM [3]: 209 µL/min/mg; half-life [4]: 0.4 h; clearance [5]: 130 mL/min/kg; bioavailability [6]: 8%; inhibition at 5 min, 10 µM (CYP1A2): 16%; inhibition at 5 min, 10 µM (CYP2D6): 34%
Cc1c(Cl)cccc1C(=O)N1CCC[C@H](c2nc(-c3ccc(Br)cc3)no2)C1 | < 6.00 | 
Cc1c(Cl)cccc1C(=O)N1CCC[C@H](c2nc(-c3cccc(Br)c3)no2)C1 | 6.51 | 
Cc1c(Cl)cccc1C(=O)N1CCC[C@H](c2nc(-c3ccccc3Br)no2)C1 | 6.08 | 
Cc1c(Cl)cccc1C(=O)N1CCC[C@H](c2nc(-c3ccccc3Cl)no2)C1 | 6.56 | 
Cc1c(Cl)cccc1C(=O)N1CCC[C@H](c2nc(-c3cccs3)no2)C1 | < 6.00 | 
Cc1c(Cl)cccc1C(=O)N1CCC[C@H](c2nc(-c3ccc(F)cc3)no2)C1 | 6.02 | 
Cc1c(Cl)cccc1C(=O)N1CCC[C@H](c2nc(C3CCCCC3)no2)C1 | 6.21 | 
Cc1c(Cl)cccc1C(=O)N1CCC[C@H](c2nc(C34CC5CC(CC(C5)C3)C4)no2)C1 | < 6.00 | 
CC1(C)C(C(=O)N2CCC[C@H](c3nc(-c4ccccc4)no3)C2)C1(C)C | 6.10 | 
Cn1ccc2c(C(=O)N3CCC[C@H](c4nc(-c5ccccc5)no4)C3)cccc21 | 6.85 | 
Cc1c(Br)cccc1C(=O)N1CCC[C@H](c2nc(-c3ccccc3)no2)C1 | 8.48 | inhibition at 5 min, 10 µM (CYP3A4): 22%; AUCt (Rattus norvegicus [7]): 34.1 µM·min; microsomal CLint at 1 µM [3]: 63 µL/min/mg; half-life [4]: 2.1 h; CL (Rattus norvegicus [8]): 16 mL/min/kg; F (Rattus norvegicus [9]): 25%; inhibition at 5 min, 10 µM (CYP1A2): 0%; inhibition at 5 min, 10 µM (CYP2D6): 0%
Cc1cccc(C(=O)N2CCC[C@H](c3nc(-c4ccccc4)no3)C2)c1Cl | 7.55 | 
O=C(c1ccc(Cl)cc1)N1CCC[C@H](c2nc(-c3ccccc3)no2)C1 | 6.56 | 
O=C(c1cccc(Cl)c1)N1CCC[C@H](c2nc(-c3ccccc3)no2)C1 | 6.13 | 
Cc1c(Cl)cccc1C(=O)N1CCC[C@H](c2noc(-c3ccccc3)n2)C1 | 6.97 | 
Cc1c(Cl)cccc1C(=O)N1CCC[C@H](n2nnc(-c3ccccc3)n2)C1 | 6.23 | 
Cc1c(Cl)cccc1C(=O)N1CCC[C@H](c2nnc(-c3ccccc3)[nH]2)C1 | 6.02 | 
Cc1c(Cl)cccc1C(=O)N1CCC[C@H](c2nnc(-c3ccccc3)o2)C1 | 5.88 | 

The next lines start with results.

pIC50 [1] | Structure (SMILES) | other results
7.04 | O=C(C1CC1)N1CCC[C@H](c2nc(-c3ccccc3)no2)C1 | 
6.49 | O=C(C1CCC1)N1CCC[C@H](c2nc(-c3ccccc3)no2)C1 | 
7.15 | O=C(C1CCCCC1)N1CCC[C@H](c2nc(-c3ccccc3)no2)C1 | inhibition at 5 min, 10 µM (CYP3A4): 7.7%; AUCt (Rattus norvegicus [7]): 25.3 µM·min; microsomal CLint at 1 µM [3]: 44 µL/min/mg; half-life [4]: 1.3 h; CL (Rattus norvegicus [8]): 24 mL/min/kg; F (Rattus norvegicus [9]): 36%; inhibition at 5 min, 10 µM (CYP1A2): 16%; inhibition at 5 min, 10 µM (CYP2D6): 12%
5.83 | O=C(C1CCCCCC1)N1CCC[C@H](c2nc(-c3ccccc3)no2)C1 | 
6.15 | Cn1cccc1C(=O)N1CCC[C@H](c2nc(-c3ccccc3)no2)C1 | 
6.18 | O=C(c1ccco1)N1CCC[C@H](c2nc(-c3ccccc3)no2)C1 | 
6.07 | O=C(c1ccccc1Cl)N1CCC[C@H](c2nc(-c3ccccc3)no2)C1 | 
6.36 | Cc1ccccc1C(=O)N1CCC[C@H](c2nc(-c3ccccc3)no2)C1 | 
5.62 | O=C(c1ccccc1)N1CCC[C@H](c2nc(-c3ccccc3)no2)C1 | 
7.57 | Cc1c(Cl)cccc1C(=O)N1CCC[C@H](c2nc(-c3ccccc3)no2)C1 | 
